Series [1] can be described thus: Measurement of thermal stability (weight reduction rate, TG-DTA). Type of series: physicochemical. The note with it: heated to 230° C. at 10° C./minute, kept 60 minutes at 230° C. On the procedure: About 5 mg of each of color materials A to S of Examples 1 to 9 and Comparative examples 1 to 10, was put in a quartz pan and heated up to 230° C. at a heating rate of 10° C./minute, placing alumina on the quartz pan as a reference, by means of a differential thermogravimetric analyzer (TG-DTA) (product name; TG8120; manufactured by: Rigaku Corporation). After reaching 230° C., the temperature was kept for 60 minutes at 230° C. Then, a weight reduction rate was measured. The weight reduction rate was calculated by the following formula and can be used as an indicator of heat resistance. Weight reduction rate=(weight before heating−weight after heating)/weight before heating×100(%)

Series [2] is described as follows: Measurement of decomposition point (TG-DTA). The format is physicochemical. To be noted: TG-DTA up to 800° C. at 10° C./minute, extrapolation temperature of the peak of the TG curve. On the procedure:
About 5 mg of each of color materials A to S of Examples 1 to 9 and Comparative examples 1 to 10, was put in a quartz pan, and measured by means of a differential thermogravimetric analyzer (TG-DTA) (product name; TG8120; manufactured by: Rigaku Corporation) up to 800° C. at a heating rate of 10° C./minute, placing alumina on the quartz pan as a reference. The extrapolation temperature of the peak of the thus-obtained TG curve was used as the decomposition point. The temperature of the decomposition point can be used as an indicator of heat resistance.

Molecules are shown by their SMILES.

For the compound `CCNc1ccc(C(=C2C=CC(=[N+](CC)CC)C=C2)c2ccc(N(CC)CC)cc2)c2ccccc12` [Color material L], in series [1] (listed as L), the Weight reduction rate is listed as −31.8%. Besides, the Decomposition point in series [2] (listed as L) is 241 °C.
Consider `CCN(CC)c1ccc(C(=C2C=CC(=[N+](CC)CC)C=C2)c2ccc(NCc3ccc(CNc4ccc(C(=C5C=CC(=[N+](CC)CC)C=C5)c5ccc(N(CC)CC)cc5)c5ccccc45)cc3)c3ccccc23)cc1` [Color material A], for which, in series [1] (listed as A), the Weight reduction rate was −19.1%. For the same compound, the Decomposition point in series [2] (listed as A) was 253 °C.
With `CCN(CC)c1ccc(C(=C2C=CC(=[N+](CC)CC)C=C2)c2ccc(NCc3ccc(CNc4ccc(C(=C5C=CC(=[N+](CC)CC)C=C5)c5ccc(N(CC)CC)cc5)c5ccccc45)cc3)c3ccccc23)cc1` [Color material J], in series [1] (listed as J), the Weight reduction rate is reported as −35.1%. In series [2] (listed as J), the Decomposition point was 248 °C.
On to `CCNc1ccc(C(=C2C=CC(=[N+](CC)CC)C=C2)c2ccc(N(CC)CC)cc2)c2ccccc12` [Color material N], for which the Weight reduction rate in series [1] (listed as N) is on record as −38.3%. Further, in series [2] (listed as N), the Decomposition point was 251 °C.
As to `CCNc1ccc(C(=C2C=CC(=[N+](CC)CC)C=C2)c2ccc(N(CC)CC)cc2)c2ccccc12` [Color material K], the Weight reduction rate in series [1] (listed as K) is given as −32.8%. Moreover, the Decomposition point in series [2] (listed as K) is 237 °C.
Turning to `CCNc1ccc(C(=C2C=CC(=[N+](CC)CC)C=C2)c2ccc(N(CC)CC)cc2)c2ccccc12` [Color material R], the Weight reduction rate in series [1] (listed as R) is reported as −30.5%. Moreover, in series [2] (listed as R), the Decomposition point was 259 °C.
For the compound `CCNc1ccc(C(=C2C=CC(=[N+](CC)CC)C=C2)c2ccc(N(CC)CC)cc2)c2ccccc12` [Color material Q], the Weight reduction rate in series [1] (listed as Q) is reported as −30.1%. Also, the Decomposition point in series [2] (listed as Q) is 258 °C.
For `CCN(CC)c1ccc(C(=C2C=CC(=[N+](CC)CC)C=C2)c2ccc(NCc3ccc(CNc4ccc(C(=C5C=CC(=[N+](CC)CC)C=C5)c5ccc(N(CC)CC)cc5)c5ccccc45)cc3)c3ccccc23)cc1` [Color material B], the Weight reduction rate in series [1] (listed as B) was −10.7%. Besides, in series [2] (listed as B), the Decomposition point is 258 °C.

The values above are taken from patent US9266905B2, “Color material and method for producing the same” (DAI NIPPON PRINTING CO., LTD., priority 2011, dated 2016).
